Consider 1 compound from ChEMBL document CHEMBL5728687, “Diazabicyclic substituted imidazopyrimidines and their use for the treatment of breathing disorders” (2021).

In this experiment the target is Potassium channel subfamily K member 9 (Homo sapiens, UniProt Q9NPC2). Kind of experiment: Inhibition of Recombinant TASK-1 and TASK-3 In Vitro: The investigations on the inhibition of the recombinant TASK-1 and TASK-3 channels were conducted using stably transfected CHO cells. The compounds according to the invention were tested in this case by application of 40 mM potassium chloride in the presence of a voltage-sensitive dye according to the method described in detail in the following references [Whiteaker et al., Validation of FLIPR membrane potential dye for high-throughput screening of potassium channel modulators, J. Biomol. Screen. 6 (5), 305-312 (2001); Molecular Devices FLIPR Application Note: Measuring membrane potential using the FLIPR® membrane potential assay kit on Fluorometric Imaging Plate Reader (FLIPR®) systems, http://www.moleculardevices.com/reagents-supplies/assay-kits/ion-channels/flipr-membrane-potential-assay-kits]. The activity of the test substances was determined as their ability to inhibit a depolarization induced in the recombinant cells by 40 mM potassium chloride. The concentration which can block half of this depolarization is referred to as IC50. The format is cell-based.
Sequence of Potassium channel subfamily K member 9 (Q9NPC2 whole entry): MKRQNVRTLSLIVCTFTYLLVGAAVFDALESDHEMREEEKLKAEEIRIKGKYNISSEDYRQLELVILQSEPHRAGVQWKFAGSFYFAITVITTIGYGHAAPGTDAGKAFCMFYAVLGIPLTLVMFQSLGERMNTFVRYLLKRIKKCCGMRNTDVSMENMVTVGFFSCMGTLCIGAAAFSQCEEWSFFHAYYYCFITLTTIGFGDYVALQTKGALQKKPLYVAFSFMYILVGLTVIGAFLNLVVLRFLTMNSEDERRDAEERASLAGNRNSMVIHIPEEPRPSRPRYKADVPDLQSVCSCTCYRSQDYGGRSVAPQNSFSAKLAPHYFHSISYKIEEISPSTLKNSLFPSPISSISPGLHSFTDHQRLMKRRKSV

By IC50 is commonly meant the concentration that inhibits the measured activity by half. Consider `CNc1cccc(C(=O)N2C3CCC2CN(Cc2c(-c4ccc(Cl)cc4)nc4ncccn24)C3)n1`, for which the IC50 stood at 1.5 µM.
